Reference: paper PMC12261228 (ACS Pharmacology & Translational Science, 2025)

How the values were obtained:
Assay in all cases: MTS cytotoxicity assay, 72 h
[1] = system: A549; assay type: cell-based; settings: Homo sapiens, Fig. S22
Description: Cell suspensions were prepared and diluted according to the particular cell type and the expected target cell density (500 – 4,000 cells/well). The cells (30 μL/well) were seeded to 384-well clear Corning plates by MultiDrop Combi (Thermo Fisher Scientific, USA). After 24 h the cells were treated with tested compounds as well as with vehicle (DMSO) and high controls (2.67 μM of Actinomycin D and 100 μM Mitomycin C) using contact-free acoustic liquid handler ECHO 555 (Labcyte, USA). Compounds were analyzed at a concentration range from 0.012 μM to 50 μM. Treated cells were incubated at 37 °C in a 5% CO2 atmosphere of a humidified incubator for 72 h. At the end of the incubation period, aliquots of the MTS (Promega) solution prepared according to manufacturer's instructions were added to cells (https://worldwide.promega.com/resources/protocols/technical-bulletins/0/celltiter-96-aqueous-nonradioactive-cell-proliferation-assay-protocol/). After 1 – 4 h of the incubation period, the optical density (OD) at 490 nm was measured on a multimode plate reader EnVision (PerkinElmer, USA). The experiments were performed in technical duplicates and at least three biological replicates. […] The assay quality was monitored by determining the Z′-factor for each 384-well plate. The resistance index (RI), representing the reduction in compound activity on resistant cell lines, was calculated as RI = (IC50 of resistant cell lines, CEM-DNR, K562-TAX)/(IC50 of nonresistant counterparts, CCRF-CEM, K562). Similarly, the selectivity index (SI), indicating preferential cytotoxicity toward tumor cell lines, was calculated as SI = (mean IC50 of nontumor cell lines, BJ and MRC5)/(mean IC50 of cancer cell lines without resistant variants, CCRF-CEM, K562, HCT116, HCT116p53–/–, U2OS).

[2] = system: HCT116; assay type: cell-based; settings: Homo sapiens, HCT-116, 72 h; MTS assay, 3-day incubation, mean ± SD; read-out: IC50 HCT116
[3] = system: K562; assay type: cell-based; settings: Homo sapiens, K562, 72 h; MTS assay, 3-day incubation, mean ± SD; read-out: IC50 K562
[4] = system: CCRF-CEM; assay type: cell-based; settings: Homo sapiens, CCRF-CEM, 72 h; MTS assay, 3-day incubation, mean ± SD of 3 experiments; read-out: IC50 CCRF-CEM
[5] = system: MRC-5; assay type: cell-based; settings: Homo sapiens, MRC5, 72 h; normal fibroblasts; MTS assay, 3-day incubation, mean ± SD; read-out: IC50 MRC-5
[6] = system: U2OS; assay type: cell-based, human; settings: Homo sapiens, U2OS, 72 h; MTS assay, 3-day incubation, mean ± SD; read-out: IC50 U2OS
[7] = system: BJ; assay type: cell-based; settings: Homo sapiens, normal fibroblasts, MTS assay, 3-day incubation, mean ± SD, read-out: IC50 BJ
[8] = system: CEM-DNR; assay type: cell-based; settings: Homo sapiens, daunorubicin-resistant, MTS assay, 3-day incubation, mean ± SD, read-out: IC50 CEM-DNR
[9] = system: K562-TAX; assay type: cell-based; settings: paclitaxel-resistant, MTS assay, 3-day incubation, mean ± SD, read-out: IC50 K562-TAX
[10] = system: HCT116p53–/–; assay type: cell-based; settings: MTS assay, 3-day incubation, mean ± SD, read-out: IC50 HCT116p53–/–

| Structure (SMILES) | IC50 [1] [µM] | IC50 [2] [µM] | IC50 [3] [µM] | IC50 [4] [µM] | IC50 [5] [µM] | IC50 [6] [µM] | IC50 [7] [µM] | IC50 [8] [µM] | IC50 [9] [µM] | IC50 [10] [µM] |
| --- | --- | --- | --- | --- | --- | --- | --- | --- | --- | --- |
| COc1cc(C2=C3C(C)=CC(C)=[N+]3[B-](F)(F)n3c(C)cc(C)c32)ccc1O [B7] | > 50 | > 50 | > 50 | > 50 | > 50 | > 50 | > 50 | 39.9 | > 50 | > 50 |
| C#CCOc1ccc(C2=C3C(C)=CC(C)=[N+]3[B-](F)(F)n3c(C)cc(C)c32)cc1OC [B8] | > 50 | > 50 | > 50 | > 50 | > 50 | > 50 | > 50 | > 50 | > 50 | > 50 |
| C#CCCCC1=C2C(C)=CC(C)=[N+]2[B-](F)(F)n2c(C)cc(C)c21 [B9] | > 50 | > 50 | > 50 | > 50 | > 50 | > 50 | > 50 | > 50 | > 50 | > 50 |
| C#CCCCCCCCCC1=C2C(C)=CC(C)=[N+]2[B-](F)(F)n2c(C)cc(C)c21 [B10] | > 50 | > 50 | > 50 | > 50 | > 50 | > 50 | > 50 | > 50 | > 50 | > 50 |
